# Values of other authors as cited in EP2742940A1, “Salts of aza-bicyclo-di-aryl ethers for adminstration once daily, twice daily or thrice daily” (IP Gesellschaft für Management mbH, priority 2012, dated 2014).
# Where “and” joins values, the source holds several entries; their conditions need not be identical. Equal values may be shown once. Read-outs that look alike come from different tables or passages of the source.
# Key:
# α7-nAChR = biological target: T1, α7-nAChR (Homo sapiens, UniProt P36544); settings: Emax relative to epibatidine response
# T1 construct: expressed in transfected cells; host or cells: GH3 cells
# mice = settings: mouse, oral, Dose 0.3 mg/kg, familiar partner at 24 h vs time 0
# α4β2-nAChR = biological target: T2, α4β2-nAChR (Homo sapiens, UniProt P17787+P43681)
# T2 construct: expressed in transfected cells
# [1] = mice; for Brain (pmoles/g)±SD) / Plasma (pmoles/ml±SD): 30 µmol/kg p.o.
# [2] = parameters: Initial water content / Hygroscopy @ 85%RH: unit not given here; settings: for Initial water content: Example 7 comparison of salt forms
# [3] = dogs (N=3), 1.4 µmol/kg p.o.
# A375 cells = settings: XTT, three days after compound addition
# [4] = rat
# P-Erk = settings: A375 cells, P-Erk In-Cell-Western, 3 hrs treatment
# [5] = male Wistar rats, oral 10 mg/kg, Mean All (n=8)
# [6] = male Wistar rats, oral 10 mg/kg, individual rats 01-08, listed as free base, 10 mg/kg
# [7] = rats, acute oral dosing of 10 mg/kg
# [8] = male Wistar rats, oral 10 mg/kg, Median [range]
# [9] = male Wistar rats, oral 10 mg/kg, individual rats 01-08, listed as mono-fumarate, 10 mg/kg
# T2 sequence (P43681 29-627 limits assumed): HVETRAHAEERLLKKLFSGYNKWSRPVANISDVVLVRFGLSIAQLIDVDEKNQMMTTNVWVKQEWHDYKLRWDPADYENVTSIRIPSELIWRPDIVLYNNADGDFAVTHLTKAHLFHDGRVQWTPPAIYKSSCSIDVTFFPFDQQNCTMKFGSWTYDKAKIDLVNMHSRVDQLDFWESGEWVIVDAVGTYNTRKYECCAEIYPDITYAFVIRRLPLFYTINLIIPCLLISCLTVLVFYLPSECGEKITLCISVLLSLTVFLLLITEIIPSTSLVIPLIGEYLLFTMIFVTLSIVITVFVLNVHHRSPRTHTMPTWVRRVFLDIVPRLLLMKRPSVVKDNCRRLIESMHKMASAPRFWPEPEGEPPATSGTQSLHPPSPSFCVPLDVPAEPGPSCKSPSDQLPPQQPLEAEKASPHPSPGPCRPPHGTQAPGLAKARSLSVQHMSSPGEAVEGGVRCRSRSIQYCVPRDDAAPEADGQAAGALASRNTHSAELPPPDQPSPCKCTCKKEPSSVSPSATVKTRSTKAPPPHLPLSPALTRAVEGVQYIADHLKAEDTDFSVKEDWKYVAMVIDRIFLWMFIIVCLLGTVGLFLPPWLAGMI
# T2 sequence (P17787 26-502): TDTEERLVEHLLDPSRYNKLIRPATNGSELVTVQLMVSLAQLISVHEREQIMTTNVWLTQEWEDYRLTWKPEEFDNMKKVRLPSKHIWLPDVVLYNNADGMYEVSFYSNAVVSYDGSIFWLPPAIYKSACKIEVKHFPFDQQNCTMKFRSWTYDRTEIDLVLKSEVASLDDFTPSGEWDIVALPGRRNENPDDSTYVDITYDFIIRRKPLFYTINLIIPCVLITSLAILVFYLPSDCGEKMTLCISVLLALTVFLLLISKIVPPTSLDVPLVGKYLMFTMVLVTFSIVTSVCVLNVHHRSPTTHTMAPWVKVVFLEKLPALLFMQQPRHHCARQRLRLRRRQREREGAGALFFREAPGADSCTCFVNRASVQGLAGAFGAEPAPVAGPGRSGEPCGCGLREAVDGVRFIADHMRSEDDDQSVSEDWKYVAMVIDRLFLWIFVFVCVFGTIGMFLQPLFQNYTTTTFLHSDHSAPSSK
# T1 sequence (P36544 23-502): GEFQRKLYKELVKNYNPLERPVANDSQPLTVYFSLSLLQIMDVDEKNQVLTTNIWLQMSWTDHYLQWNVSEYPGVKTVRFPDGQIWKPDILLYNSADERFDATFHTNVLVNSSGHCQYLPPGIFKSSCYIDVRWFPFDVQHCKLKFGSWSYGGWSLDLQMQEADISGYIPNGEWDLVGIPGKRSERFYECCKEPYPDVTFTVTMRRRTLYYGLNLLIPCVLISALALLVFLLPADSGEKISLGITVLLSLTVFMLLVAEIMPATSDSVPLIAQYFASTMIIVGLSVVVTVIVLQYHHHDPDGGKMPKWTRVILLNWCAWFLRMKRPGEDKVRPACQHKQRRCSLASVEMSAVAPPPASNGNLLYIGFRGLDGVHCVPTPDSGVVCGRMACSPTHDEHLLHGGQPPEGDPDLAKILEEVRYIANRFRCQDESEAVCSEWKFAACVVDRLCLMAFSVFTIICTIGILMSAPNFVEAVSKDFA
smiles,measurement,setting,value
"Cc1ccc(-c2ccc(O[C@H]3CN4CCC3CC4)cn2)cc1 [Compound A, (R)-3-(6-(4-methylphenyl)-pyridin-3-yloxy)-1-aza-bicyclo[2.2.2]octane]",α7-nAChR activity Efficacy compared to epibatidine (100%),α7-nAChR,75%
same,AUClast,[5],200 ng·h/mL
same,AUClast/Dose (h·ng/mL)/(mg/kg),[5],20.4 (h·ng/mL)/(mg/kg)
same,Cmax,[5],112 ng/mL
same,Cmax/Dose (ng/mL)/(mg/kg),[5],11.3 (ng/mL)/(mg/kg)
same,"Concentration in plasma, Time (h) 0.25",[5],100 ng/mL
same,"Concentration in plasma, Time (h) 0.5",[5],83.5 ng/mL
same,"Concentration in plasma, Time (h) 1",[5],52.7 ng/mL
same,"Concentration in plasma, Time (h) 2",[5],31.2 ng/mL
same,"Concentration in plasma, Time (h) 3",[5],16.2 ng/mL
same,"Concentration in plasma, Time (h) 4",[5],10.3 ng/mL
same,"Concentration in plasma, Time (h) 6",[5],437 ng/mL
same,"Concentration in plasma, Time (h) 8",[5],354 ng/mL
same,"Concentration in plasma, Time (h) 24",[5],0.822 ng/mL
same,AUClast,[6],141 ng·h/mL and 123 ng·h/mL and 238 ng·h/mL and 136 ng·h/mL and 214 ng·h/mL and 296 ng·h/mL and 234 ng·h/mL and 236 ng·h/mL
same,AUClast/Dose (h·ng/mL)/(mg/kg),[6],14.0 (h·ng/mL)/(mg/kg) and 12.0 (h·ng/mL)/(mg/kg) and 24.4 (h·ng/mL)/(mg/kg) and 13.5 (h·ng/mL)/(mg/kg) and 21.6 (h·ng/mL)/(mg/kg) and 29.7 (h·ng/mL)/(mg/kg) and 23.4 (h·ng/mL)/(mg/kg) and 24.5 (h·ng/mL)/(mg/kg)
same,Cmax,[6],58.8 ng/mL and 89.6 ng/mL and 83.0 ng/mL and 94.8 ng/mL and 119 ng/mL and 188 ng/mL and 117 ng/mL and 145 ng/mL
same,Cmax/Dose (ng/mL)/(mg/kg),[6],5.81 (ng/mL)/(mg/kg) and 8.79 (ng/mL)/(mg/kg) and 8.50 (ng/mL)/(mg/kg) and 9.40 (ng/mL)/(mg/kg) and 12.0 (ng/mL)/(mg/kg) and 18.9 (ng/mL)/(mg/kg) and 11.7 (ng/mL)/(mg/kg) and 15.0 (ng/mL)/(mg/kg)
same,"Concentration in plasma, Time (h) 0.25",[6],58.8 ng/mL and 89.68 ng/mL and 3.0 ng/mL and 79.4 ng/mL and 105 ng/mL and 188 ng/mL and 49.0 ng/mL and 145 ng/mL
same,"Concentration in plasma, Time (h) 0.5",[6],34.8 ng/mL and 51.2 ng/mL and 64.5 ng/mL and 94.8 ng/mL and 119 ng/mL and 122 ng/mL and 117 ng/mL and 65.0 ng/mL
same,"Concentration in plasma, Time (h) 1",[6],20.1 ng/mL and 63.9 ng/mL and 36.0 ng/mL and 65.8 ng/mL and 83.6 ng/mL and 87.0 ng/mL and 33.8 ng/mL
same,"Concentration in plasma, Time (h) 2",[6],679 ng/mL and 12.6 ng/mL and 51.7 ng/mL and 16.2 ng/mL and 43.2 ng/mL and 46.9 ng/mL and 42.2 ng/mL and 29.9 ng/mL
same,"Concentration in plasma, Time (h) 3",[6],531 ng/mL and 838 ng/mL and 26.3 ng/mL and 784 ng/mL and 23.0 ng/mL and 34.4 ng/mL and 18.4 ng/mL and 620 ng/mL
same,"Concentration in plasma, Time (h) 4",[6],394 ng/mL and 3.99 ng/mL and 18.2 ng/mL and 454 ng/mL and 8.63 ng/mL and 21.1 ng/mL and 13.8 ng/mL and 8.55 ng/mL
same,"Concentration in plasma, Time (h) 6",[6],487 ng/mL and 181 ng/mL and 662 ng/mL and 127 ng/mL and 5.32 ng/mL and 438 ng/mL and 4.59 ng/mL and 606 ng/mL
same,"Concentration in plasma, Time (h) 8",[6],662 ng/mL and 0.812 ng/mL and 246 ng/mL and 1.32 ng/mL and 367 ng/mL and 154 ng/mL and 225 ng/mL and 967 ng/mL
same,T1/2,[6],8.67 h and 3.24 h and 367 h
same,Tlast,[6],24.0 h (3×) and 8.0 h
same,AUClast,[7],200+-62 h ng/ml
same,Reduction in time scrutinizing in % ± SEM at 24 h,mice,36 ± 6%
same,EC50,α4β2-nAChR,> 100000 nM
same,Brain (pmoles/g)±SD),[1]; 0.25 hour,4631 ± 1717 pmol/g
same,Plasma (pmoles/ml±SD),[1]; 0.25 hour,573 ± 234 pmol/mL
same,Brain (pmoles/g)±SD),[1]; 0.5 hour,11430 ± 3441 pmol/g
same,Plasma (pmoles/ml±SD),[1]; 0.5 hour,559 ± 143 pmol/mL
same,Brain (pmoles/g)±SD),[1]; 1 hour,14948 ± 4716 pmol/g
same,Plasma (pmoles/ml±SD),[1]; 1 hour,322 ± 135 pmol/mL
same,Brain (pmoles/g)±SD),[1]; 4 hour,1272 ± 715 pmol/g
same,Plasma (pmoles/ml±SD),[1]; 4 hour,20 ± 16 pmol/mL
same,Brain (pmoles/g)±SD),[1]; 8 hour,58 ± 27 pmol/g
same,time for which brain concentration is beyond (or at least equal) to the compound's EC50 at the a7-nAChR,"[1]; acute oral dose of 30 pmol/kg (so in the source), free base form",at least 4 hours
same,Hygroscopy @ 85%RH,[2],∼2
same,Initial water content,[2],0.1
same,moisture gain,[2]; at 93% relative humidity (RH),2%
"Cc1ccc(-c2ccc(O[C@H]3CN4CCC3CC4)cn2)cc1.O=C(O)/C=C/C(=O)O [Compound B, fumarate salt of (R)-3-(6-(4-methylphenyl)-pyridin-3-yloxy)-1-aza-bicyclo[2.2.2]octane]",T1/2,"male Wistar rats, oral 10 mg/kg, Mean All",3.76 h
same,AUClast,[5],249 ng·h/mL
same,AUClast/Dose (h·ng/mL)/(mg/kg),[5],25.4 (h·ng/mL)/(mg/kg)
same,Cmax,[5],161 ng/mL
same,Cmax/Dose (ng/mL)/(mg/kg),[5],16.5 (ng/mL)/(mg/kg)
same,"Concentration in plasma, Time (h) 0.25",[5],149 ng/mL
same,"Concentration in plasma, Time (h) 0.5",[5],132 ng/mL
same,"Concentration in plasma, Time (h) 1",[5],77.4 ng/mL
same,"Concentration in plasma, Time (h) 2",[5],38.9 ng/mL
same,"Concentration in plasma, Time (h) 3",[5],19.5 ng/mL
same,"Concentration in plasma, Time (h) 4",[5],10.6 ng/mL
same,"Concentration in plasma, Time (h) 6",[5],5.10 ng/mL
same,"Concentration in plasma, Time (h) 8",[5],2.54 ng/mL
same,"Concentration in plasma, Time (h) 24",[5],0320 ng/mL
same,Tlast,[8],24.0 h
same,Tmax,[8],0.25 h
same,AUClast,[9],202 ng·h/mL and 259 ng·h/mL and 212 ng·h/mL and 188 ng·h/mL and 269 ng·h/mL and 292 ng·h/mL and 298 ng·h/mL and 272 ng·h/mL
same,AUClast/Dose (h·ng/mL)/(mg/kg),[9],20.8 (h·ng/mL)/(mg/kg) and 26.3 (h·ng/mL)/(mg/kg) and 21.4 (h·ng/mL)/(mg/kg) and 192 (h·ng/mL)/(mg/kg) and 28.0 (h·ng/mL)/(mg/kg) and 30.1 (h·ng/mL)/(mg/kg) and 29.6 (h·ng/mL)/(mg/kg) and 27.9 (h·ng/mL)/(mg/kg)
same,Cmax,[9],167 ng/mL and 162 ng/mL and 78.4 ng/mL and 99.7 ng/mL and 242 ng/mL and 204 ng/mL and 184 ng/mL and 153 ng/mL
same,Cmax/Dose (ng/mL)/(mg/kg),[9],17.2 (ng/mL)/(mg/kg) and 16.4 (ng/mL)/(mg/kg) and 7.88 (ng/mL)/(mg/kg) and 102 (ng/mL)/(mg/kg) and 25.2 (ng/mL)/(mg/kg) and 21.1 (ng/mL)/(mg/kg) and 18.3 (ng/mL)/(mg/kg) and 15.7 (ng/mL)/(mg/kg)
same,"Concentration in plasma, Time (h) 0.25",[9],167 ng/mL and 162 ng/mL and 77.8 ng/mL and 890 ng/mL and 242 ng/mL and 204 ng/mL and 93.3 ng/mL and 153 ng/mL
same,"Concentration in plasma, Time (h) 0.5",[9],104 ng/mL and 130 ng/mL and 784 ng/mL and 99.7 ng/mL and 143 ng/mL and 179 ng/mL and 184 ng/mL and 138 ng/mL
same,"Concentration in plasma, Time (h) 1",[9],67.1 ng/mL and 88.8 ng/mL and 41.3 ng/mL and 62.8 ng/mL and 83.2 ng/mL and 80.8 ng/mL and 101 ng/mL and 94.2 ng/mL
same,"Concentration in plasma, Time (h) 2",[9],27.4 ng/mL and 39.2 ng/mL and 378 ng/mL and 24.6 ng/mL and 47.1 ng/mL and 37.6 ng/mL and 54.8 ng/mL and 42.6 ng/mL
same,"Concentration in plasma, Time (h) 3",[9],12.4 ng/mL and 17.7 ng/mL and 25.3 ng/mL and 11.7 ng/mL and 19.6 ng/mL and 20.6 ng/mL and 25.1 ng/mL and 23.2 ng/mL
same,"Concentration in plasma, Time (h) 4",[9],906 ng/mL and 10.6 ng/mL and 13.3 ng/mL and 5.90 ng/mL and 9.71 ng/mL and 11.8 ng/mL and 13.0 ng/mL and 11.1 ng/mL
same,"Concentration in plasma, Time (h) 6",[9],749 ng/mL and 3.47 ng/mL and 7.63 ng/mL and 5.79 ng/mL and 4.29 ng/mL and 4.24 ng/mL and 4.05 ng/mL and 3.87 ng/mL
same,"Concentration in plasma, Time (h) 8",[9],291 ng/mL and 2.35 ng/mL and 3.62 ng/mL and 2.62 ng/mL and 2.46 ng/mL and 1.94 ng/mL and 238 ng/mL and 207 ng/mL
same,T1/2,[9],2.44 h and 5.02 h and 3.62 h and 3.71 h and 2.02 h and 3.97 h and 5.51 h
same,Tlast,[9],8.0 h (2×) and 24.0 h (6×)
same,Tmax,[9],0.25 h (3×) and 025 h (2×) and 0.50 h (3×)
same,AUClast,[7],249+-42 h ng/ml
same,Cmax of the free form in plasma,"rats, acute oral dosing of 10 mg/kg (relative to free form)",161+-53 ng/ml
same,Plasma (pmoles/ml±SD),[3]; 0.5 hour,49.4 ± 21.9 pmol/mL
same,Plasma (pmoles/ml±SD),[3]; 1 hour,67.6 ± 22.6 pmol/mL
same,Plasma (pmoles/ml±SD),[3]; 2 hour,75.2 ± 36.8 pmol/mL
same,Plasma (pmoles/ml±SD),[3]; 4 hour,27.5 ± 13.3 pmol/mL
same,Plasma (pmoles/ml±SD),[3]; 8 hour,8.1 ± 3.0 pmol/mL
same,Plasma (pmoles/ml±SD),[3]; 24 hour,0.8 ± 0.7 pmol/mL
same,Plasma (pmoles/ml±SD),"[3]; fumarate salt form, 0.25 hour",14.7 ± 1.1 pmol/mL
same,Hygroscopy @ 85%RH,[2],0.5
same,Initial water content,[2],<0.5
same,moisture gain,[2]; at 85% RH,0.5%
"O=S(=O)(Nc1c(Nc2ccc(I)cc2F)c(F)c(F)c2ccoc12)C1(C[C@@H](O)CO)CC1 [Example 1B, (R)-N-(4,5-difluoro-6-((2-fluoro-4-iodophenyl)amino)benzofuran-7-yl)-1-(2,3-dihydroxypropyl)cyclopropane-1-sulfonamide]",GI50,A375 cells,29.6 nM
same,PK-parameters compared to Example 1,[4]; one-way analysis of variance,improved PK-parameters
same,%F,[4]; p.o. (3 mg/kg),126%
same,EC50,P-Erk,15.6 nM
